Assay results published in patent publication US20120208809A1, “9H-PYRROLO[2,3-B: 5,4-C'] DIPYRIDINE AZACARBOLINE DERIVATIVES, PREPARATION THEREOF, AND THERAPEUTIC USE THEREOF” (SANOFI, priority 2009, published 2012).

Assays:
Pim-3 = molecular target: T1, Pim-3 (Homo sapiens, UniProt Q86V86); assay: TR-FRET assay of Pim kinase activity (phosphorylation of Bad Ser112), Pim-3; assay type: biochemical; conditions: ATP 40 μM, read-out: IC50 Pim3
T1 construct: full-length human recombinant His6-labelled Pim-1, Pim-2 or Pim-3 protein; His6; made in house
Protocol: (§1) In order to determine the inhibition of Pim kinase activity, the compounds of the invention are tested in accordance with a routinely-used in-vitro TR-FRET assay (“Time Resolved-Fluorescence Resonance Energy Transfer”). […] For the assay, the following reagents are used:
(§2) Pim kinase—full-length human recombinant His6-labelled Pim-1, Pim-2 or Pim-3 protein (prepared according to J. Mol. Biol. (2005) 348, 183-193); Bad—full-length human recombinant His6-labelled Bad protein (prepared according to J. Mol. Biol. (2005) 348, 183-193); α-His6-APC—mouse monoclonal antibody conjugated to allophycocyanine SureLight™ directed against the His6 label (Perkin-Elmer, No. AD0059H, Waltham, Mass., United States); α-P˜Bad-Eu—mouse monoclonal antibody (Cell Signaling Technology #9296B, Danvers, Mass., United States) directed against phosphoBad (Ser112) (7E11) labelled on request by Perkin-Elmer with the reagent LANCE™ Eu-W1024.
(§3) The assay is based on the LANCE™ technology from Perkin-Elmer: the Eu-labelled antibody binds to phospho-Ser112 and generates a TR-FRET signal by interaction with the […] antibody directed against His6, bound to the His6 label of Bad. The TR-FRET signal is detected using a SpectraMax M5 plate reader (Molecular Devices) with the following settings: λex=340 nm, λem1=615 nm, λem2=665 nm. The ratio of the fluorescence signal at 665 nm to the fluorescence signal at 615 nm is used as the signal reading for the IC50 (calculations based on the 4-parameter logistic model). The assay is performed in 384-well format; the liquid manipulations are performed using a Beckmann 3000 liquid manipulation station. The test compounds are tested at 10 concentration points in duplicate; the highest concentration of compound is typically equal to 30 μM. The ATP concentration is equal to 40 μM.

Pim-2 = molecular target: T2, Pim-2 (Homo sapiens, UniProt Q9P1W9); assay: TR-FRET assay of Pim kinase activity (phosphorylation of Bad Ser112), Pim-2; assay type: biochemical; conditions: ATP 40 μM, read-out: IC50 Pim2
T2 construct: full-length human recombinant His6-labelled Pim-1, Pim-2 or Pim-3 protein; His6; made in house
T2 sequence (Q9P1W9 whole entry): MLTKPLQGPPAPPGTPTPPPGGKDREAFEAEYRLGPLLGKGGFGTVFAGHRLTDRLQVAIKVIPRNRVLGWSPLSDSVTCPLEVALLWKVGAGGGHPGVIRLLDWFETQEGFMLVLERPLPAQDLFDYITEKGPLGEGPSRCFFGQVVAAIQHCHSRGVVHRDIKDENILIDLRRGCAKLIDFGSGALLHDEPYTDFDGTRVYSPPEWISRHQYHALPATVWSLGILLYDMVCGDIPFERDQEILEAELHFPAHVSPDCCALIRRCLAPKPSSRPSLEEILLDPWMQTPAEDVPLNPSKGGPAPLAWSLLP
Protocol: as §1, §2, §3

Pim-1 = molecular target: T3, Pim-1 (Homo sapiens, UniProt P11309); assay: TR-FRET assay of Pim kinase activity (phosphorylation of Bad Ser112), Pim-1; assay type: biochemical; conditions: ATP 40 μM, read-out: IC50 Pim1
T3 construct: full-length human recombinant His6-labelled Pim-1, Pim-2 or Pim-3 protein; His6; made in house
T3 sequence (P11309 whole entry): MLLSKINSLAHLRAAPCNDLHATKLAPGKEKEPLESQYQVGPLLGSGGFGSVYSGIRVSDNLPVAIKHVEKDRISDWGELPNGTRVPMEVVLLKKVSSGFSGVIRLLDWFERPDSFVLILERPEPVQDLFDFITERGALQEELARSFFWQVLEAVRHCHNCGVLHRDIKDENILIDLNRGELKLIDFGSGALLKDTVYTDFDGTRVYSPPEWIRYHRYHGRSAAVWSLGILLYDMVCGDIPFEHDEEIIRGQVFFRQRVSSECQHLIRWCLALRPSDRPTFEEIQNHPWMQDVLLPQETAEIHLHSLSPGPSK
Protocol: as §1, §2, §3

PLK1 = PLK1 (Homo sapiens, UniProt P53350); assay: Biochemical results, IC50 PLK1
PLK1, sequence (P53350 whole entry, species assumed): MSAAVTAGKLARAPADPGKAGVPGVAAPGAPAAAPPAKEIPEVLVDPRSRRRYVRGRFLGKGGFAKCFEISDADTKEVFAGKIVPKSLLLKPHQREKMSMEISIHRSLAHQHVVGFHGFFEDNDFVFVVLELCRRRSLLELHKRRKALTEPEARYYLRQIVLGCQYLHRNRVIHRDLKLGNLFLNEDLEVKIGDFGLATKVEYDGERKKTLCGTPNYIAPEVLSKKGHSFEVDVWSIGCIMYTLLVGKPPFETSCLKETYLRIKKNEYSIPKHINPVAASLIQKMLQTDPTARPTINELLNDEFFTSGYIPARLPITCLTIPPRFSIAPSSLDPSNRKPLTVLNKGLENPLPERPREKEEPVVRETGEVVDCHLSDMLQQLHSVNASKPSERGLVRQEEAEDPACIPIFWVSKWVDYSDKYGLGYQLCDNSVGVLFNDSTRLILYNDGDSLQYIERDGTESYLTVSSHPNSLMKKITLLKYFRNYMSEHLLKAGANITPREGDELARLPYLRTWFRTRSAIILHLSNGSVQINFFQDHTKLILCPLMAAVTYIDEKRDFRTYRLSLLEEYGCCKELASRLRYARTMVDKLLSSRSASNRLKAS

CDK1 = CDK1 (Homo sapiens, UniProt P06493); assay: Biochemical results, IC50 CDK1
CDK1, sequence (P06493 whole entry, species assumed): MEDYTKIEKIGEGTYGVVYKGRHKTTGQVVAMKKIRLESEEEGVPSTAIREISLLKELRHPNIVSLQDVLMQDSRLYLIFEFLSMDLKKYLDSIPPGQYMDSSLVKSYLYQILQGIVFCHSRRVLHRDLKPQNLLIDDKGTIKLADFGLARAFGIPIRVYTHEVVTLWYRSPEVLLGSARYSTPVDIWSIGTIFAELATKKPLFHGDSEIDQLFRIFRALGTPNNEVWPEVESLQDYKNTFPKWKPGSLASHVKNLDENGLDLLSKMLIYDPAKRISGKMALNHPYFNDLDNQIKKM
CDK1, sequence (P14635 whole entry partner, species assumed): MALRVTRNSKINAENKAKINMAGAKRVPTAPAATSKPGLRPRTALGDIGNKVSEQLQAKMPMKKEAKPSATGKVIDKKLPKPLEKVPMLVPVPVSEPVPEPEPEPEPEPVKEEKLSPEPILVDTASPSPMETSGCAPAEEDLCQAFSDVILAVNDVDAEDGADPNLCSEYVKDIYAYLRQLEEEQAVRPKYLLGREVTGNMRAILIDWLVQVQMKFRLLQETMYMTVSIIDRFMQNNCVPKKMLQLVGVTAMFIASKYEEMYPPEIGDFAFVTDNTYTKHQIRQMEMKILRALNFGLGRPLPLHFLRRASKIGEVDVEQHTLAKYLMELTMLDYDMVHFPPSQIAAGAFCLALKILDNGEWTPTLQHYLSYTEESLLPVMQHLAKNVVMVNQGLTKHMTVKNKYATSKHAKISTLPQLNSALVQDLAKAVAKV

Row | Structure (SMILES) | IC50 (Pim-3) | IC50 (Pim-2) | IC50 (Pim-1) | IC50 (PLK1) | IC50 (CDK1)
1 | CN(C)C1CCCN(C(=O)c2ccc(-c3c(F)cnc4[nH]c5cnc(-c6cccnc6)cc5c34)cc2)C1 (stereo not shown) [Example 57, [3-(dimethylamino)piperidin-1-yl]{4-[3-fluoro-6-(pyridin-3-yl)-9H-pyrrolo[2,3-b:5,4-c′]dipyridin-4-yl]phenyl}methanone] | < 100 nM | 1000 to 5000 nM | < 100 nM | 100 to 1000 nM | 100 to 1000 nM
2 | CC(C)(CNC(=O)c1ccc(-c2c(F)cnc3[nH]c4cnc(-c5cccnc5)cc4c23)cc1)N1CCCC1 [Example 58, 4-[3-fluoro-6-(pyridin-3-yl)-9H-pyrrolo[2,3-b:5,4-c′]dipyridin-4-yl]-N-[2-methyl-2-(pyrrolidin-1-yl)propyl]benzamide] | < 100 nM | 100 to 1000 nM | < 100 nM | 100 to 1000 nM | 1000 to 5000 nM
3 | O=C(NCCN1CCCCCC1)c1ccc(-c2c(F)cnc3[nH]c4cnc(-c5cccnc5)cc4c23)cc1 [Example 60, N-[2-(azepan-1-yl)ethyl]-4-[3-fluoro-6-(pyridin-3-yl)-9H-pyrrolo[2,3-b:5,4-c′]dipyridin-4-yl]benzamide] | < 100 nM | 100 to 1000 nM | < 100 nM | 100 to 1000 nM | 100 to 1000 nM
4 | CS(=O)(=O)NCCNC(=O)c1ccc(-c2c(F)cnc3[nH]c4cnc(-c5cccnc5)cc4c23)cc1 [Example 62, 4-[3-fluoro-6-(pyridin-3-yl)-9H-pyrrolo[2,3-b:5,4-c′]dipyridin-4-yl]-N-{2-[(methylsulfonyl)amino]ethyl}benzamide] | < 100 nM | 1000 to 5000 nM | < 100 nM | 100 to 1000 nM | 100 to 1000 nM
5 | CN1CCCC1CCNC(=O)c1ccc(-c2c(F)cnc3[nH]c4cnc(-c5cccnc5)cc4c23)cc1 (stereo not shown) [Example 65, 4-[3-fluoro-6-(pyridin-3-yl)-9H-pyrrolo[2,3-b:5,4-c′]dipyridin-4-yl]-N-[2-(1-methylpyrrolidin-2-yl)ethyl]benzamide] | < 100 nM | 100 to 1000 nM | < 100 nM | 100 to 1000 nM | 1000 to 5000 nM
6 | CCN(CCN(C)C)C(=O)c1ccc(-c2c(F)cnc3[nH]c4cnc(-c5cccnc5)cc4c23)cc1 [Example 67, N-[2-(dimethylamino)ethyl]-N-ethyl-4-[3-fluoro-6-(pyridin-3-yl)-9H-pyrrolo[2,3-b:5,4-c′]dipyridin-4-yl]benzamide] | < 100 nM | < 100 nM | < 100 nM | 100 to 1000 nM | 1000 to 5000 nM
7 | CN(C)[C@H]1CCN(C(=O)c2ccc(-c3c(F)cnc4[nH]c5cnc(-c6cccnc6)cc5c34)cc2)C1 [Example 69, [(3S)-3-(dimethylamino)pyrrolidin-1-yl]{4-[3-fluoro-6-(pyridin-3-yl)-9H-pyrrolo[2,3-b:5,4-c′]dipyridin-4-yl]phenyl}methanone] | < 100 nM | 100 to 1000 nM | < 100 nM | 100 to 1000 nM | 100 to 1000 nM
8 | CN1CCC(N(C)C(=O)c2ccc(-c3c(F)cnc4[nH]c5cnc(-c6cccnc6)cc5c34)cc2)C1 (stereo not shown) [Example 70, 4-[3-fluoro-6-(pyridin-3-yl)-9H-pyrrolo[2,3-b:5,4-c′]dipyridin-4-yl]-N-methyl-N-(1-methylpyrrolidin-3-yl)benzamide] | 100 to 1000 nM | 1000 to 5000 nM | < 100 nM | 1000 to 5000 nM | 1000 to 5000 nM
9 | CCN(CC)CCN(C)C(=O)c1ccc(-c2c(F)cnc3[nH]c4cnc(-c5cccnc5)cc4c23)cc1 [Example 71, N-[2-(diethylamino)ethyl]-4-[3-fluoro-6-(pyridin-3-yl)-9H-pyrrolo[2,3-b:5,4-c′]dipyridin-4-yl]-N-methylbenzamide] | < 100 nM | 1000 to 5000 nM | < 100 nM | 1000 to 5000 nM | 1000 to 5000 nM
10 | COCCN1CCN(C(=O)c2ccc(-c3c(F)cnc4[nH]c5cnc(-c6cccnc6)cc5c34)cc2)CC1 [Example 72, {4-[3-fluoro-6-(pyridin-3-yl)-9H-pyrrolo[2,3-b:5,4-c′]dipyridin-4-yl]phenyl}[4-(2-methoxyethyl)piperazin-1-yl]methanone] | 100 to 1000 nM | > 5000 nM | 100 to 1000 nM | 100 to 1000 nM | 1000 to 5000 nM
11 | Cc1n[nH]cc1CNC(=O)c1ccc(-c2c(F)cnc3[nH]c4cnc(-c5cccnc5)cc4c23)cc1 [Example 73, 4-[3-fluoro-6-(pyridin-3-yl)-9H-pyrrolo[2,3-b:5,4-c′]dipyridin-4-yl]-N-[(3-methyl-1H-pyrazol-4-yl)methyl]benzamide] | < 100 nM | 100 to 1000 nM | < 100 nM | < 100 nM | 100 to 1000 nM
12 | CN1CC2CCN(C(=O)c3ccc(-c4c(F)cnc5[nH]c6cnc(-c7cccnc7)cc6c45)cc3)CC2C1 (stereo not shown) [Example 74, {4-[3-fluoro-6-(pyridin-3-yl)-9H-pyrrolo[2,3-b:5,4-c′]dipyridin-4-yl]phenyl}(2-methyloctahydro-5H-pyrrolo[3,4-c]pyridin-5-yl)methanone] | < 100 nM | 100 to 1000 nM | < 100 nM | 100 to 1000 nM | 1000 to 5000 nM
13 | O=C(NCc1ncc[nH]1)c1ccc(-c2c(F)cnc3[nH]c4cnc(-c5cccnc5)cc4c23)cc1 [Example 76, 4-[3-fluoro-6-(pyridin-3-yl)-9H-pyrrolo[2,3-b:5,4-c′]dipyridin-4-yl]-N-(1H-imidazol-2-ylmethyl)benzamide] | < 100 nM | 100 to 1000 nM | < 100 nM | < 100 nM | 100 to 1000 nM
14 | CN1CCC2(CCN(C(=O)c3ccc(-c4c(F)cnc5[nH]c6cnc(-c7cccnc7)cc6c45)cc3)C2)C1 (stereo not shown) [Example 77, {4-[3-fluoro-6-(pyridin-3-yl)-9H-pyrrolo[2,3-b:5,4-c′]dipyridin-4-yl]phenyl}(7-methyl-2,7-diazaspiro[4.4]non-2-yl)methanone] | < 100 nM | 1000 to 5000 nM | < 100 nM | 1000 to 5000 nM | 1000 to 5000 nM
15 | O=C(NCCNc1ccccn1)c1ccc(-c2c(F)cnc3[nH]c4cnc(-c5cccnc5)cc4c23)cc1 [Example 78, 4-[3-fluoro-6-(pyridin-3-yl)-9H-pyrrolo[2,3-b:5,4-c′]dipyridin-4-yl]-N-[2-(pyridin-2-ylamino)ethyl]benzamide] | < 100 nM | 100 to 1000 nM | < 100 nM | < 100 nM | 100 to 1000 nM
16 | CCN(CC1CCN(C)C1)C(=O)c1ccc(-c2c(F)cnc3[nH]c4cnc(-c5cccnc5)cc4c23)cc1 (stereo not shown) [Example 79, N-ethyl-4-[3-fluoro-6-(pyridin-3-yl)-9H-pyrrolo[2,3-b:5,4-c′]dipyridin-4-yl]-N-[(1-methylpyrrolidin-3-yl)methyl]benzamide] | < 100 nM | 100 to 1000 nM | < 100 nM | 100 to 1000 nM | 1000 to 5000 nM
17 | O=C(c1ccc(-c2c(F)cnc3[nH]c4cnc(-c5cccnc5)cc4c23)cc1)N1CCC(N2CCCC2)C1 (stereo not shown) [Example 80, 1.3′-bipyrrolidin-1′-yl{4-[3-fluoro-6-(pyridin-3-yl)-9H-pyrrolo[2,3-b:5,4-c′]dipyridin-4-yl]phenyl}methanone] | < 100 nM | 100 to 1000 nM | < 100 nM | 100 to 1000 nM | 100 to 1000 nM
18 | CN1CCC(N(C)C(=O)c2ccc(-c3c(F)cnc4[nH]c5cnc(-c6cccnc6)cc5c34)cc2)CC1 [Example 81, 4-[3-fluoro-6-(pyridin-3-yl)-9H-pyrrolo[2,3-b:5,4-c′]dipyridin-4-yl]-N-methyl-N-(1-methylpiperidin-4-yl)benzamide] | < 100 nM | 1000 to 5000 nM | < 100 nM | 100 to 1000 nM | 1000 to 5000 nM
19 | O=C(NCc1ccnc(O)c1)c1ccc(-c2c(F)cnc3[nH]c4cnc(-c5cccnc5)cc4c23)cc1 [Example 82, 4-[3-fluoro-6-(pyridin-3-yl)-9H-pyrrolo[2,3-b:5,4-c′]dipyridin-4-yl]-N-[(2-hydroxypyridin-4-yl)methyl]benzamide] | < 100 nM | 100 to 1000 nM | < 100 nM | 100 to 1000 nM | 100 to 1000 nM
20 | N[C@H]1CCCC[C@@H]1NC(=O)c1ccc(-c2c(F)cnc3[nH]c4cnc(-c5cccnc5)cc4c23)cc1 [Example 84, N-[(1S,2S)-2-aminocyclohexyl]-4-[3-fluoro-6-(pyridin-3-yl)-9H-pyrrolo[2,3-b:5,4-c′]dipyridin-4-yl]benzamide] | < 100 nM | < 100 nM | < 100 nM | 100 to 1000 nM | 100 to 1000 nM
